In ChEMBL document CHEMBL1201862, “PubChem BioAssay data set” (2004):
Calls of active or inactive are those of the source.

Experiments:
[1] = target: T1, Zinc finger protein mex-5 (Caenorhabditis elegans, UniProt Q9XUB2); test: MEX-5/TCR-2 RNA interaction inhibitors, dose response, biochemical, C. elegans, fluorescence polarization (AID 1960)
T1 sequence (Q9XUB2 whole entry): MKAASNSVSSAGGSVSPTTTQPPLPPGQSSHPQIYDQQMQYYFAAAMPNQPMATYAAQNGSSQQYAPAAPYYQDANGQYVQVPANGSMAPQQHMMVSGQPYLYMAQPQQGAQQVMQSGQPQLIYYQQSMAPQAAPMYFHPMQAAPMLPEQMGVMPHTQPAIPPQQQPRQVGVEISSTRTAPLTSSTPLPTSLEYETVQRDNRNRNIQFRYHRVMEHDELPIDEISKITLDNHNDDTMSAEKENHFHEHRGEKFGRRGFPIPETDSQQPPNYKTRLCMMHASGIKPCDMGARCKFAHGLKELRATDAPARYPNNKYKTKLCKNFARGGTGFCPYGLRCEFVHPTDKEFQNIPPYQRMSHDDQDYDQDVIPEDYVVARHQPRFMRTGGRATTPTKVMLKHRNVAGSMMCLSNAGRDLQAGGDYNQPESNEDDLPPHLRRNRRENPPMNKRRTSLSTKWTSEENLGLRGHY

Large T antigen = Large T antigen (Simian virus 40, UniProt P03070); type: functional, Betapolyomavirus macacae;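 note: Confirmatory-stage PubChem screen for compounds that inhibit SV40 T antigen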
[2] = target: T2, RNA-binding protein pos-1 (Caenorhabditis elegans, UniProt G5EF15); test: inhibitors of POS-1/mex-3 RNA binding, dose response, biochemical, fluorescence polarization (AID 1964);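 note: purified POS-1 fused to maltose binding protein made in E. coli; potency of compounds blocking POS-1 binding to fluorescent RNA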
T2 sequence (G5EF15 whole entry): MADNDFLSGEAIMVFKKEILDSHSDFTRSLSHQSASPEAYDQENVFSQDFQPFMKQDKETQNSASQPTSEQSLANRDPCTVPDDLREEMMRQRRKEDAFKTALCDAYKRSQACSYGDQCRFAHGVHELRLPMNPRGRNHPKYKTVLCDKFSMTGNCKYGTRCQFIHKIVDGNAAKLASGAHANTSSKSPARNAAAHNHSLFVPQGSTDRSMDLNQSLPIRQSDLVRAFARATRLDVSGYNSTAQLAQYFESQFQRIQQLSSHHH

[3] = target: Heat shock protein HSP 90-alpha (Homo sapiens, UniProt P07900); type: functional, organism-based
[4] = target: T3, Rac GTPase-activating protein 1 (Homo sapiens, UniProt Q9H0H5); test: MgcRacGAP GTPase-activating activity inhibitors, confirmation, biochemical, ADP Hunter fluorescence, primary and confirmatory (AID 624330); type: functional
T3 sequence (Q9H0H5 whole entry): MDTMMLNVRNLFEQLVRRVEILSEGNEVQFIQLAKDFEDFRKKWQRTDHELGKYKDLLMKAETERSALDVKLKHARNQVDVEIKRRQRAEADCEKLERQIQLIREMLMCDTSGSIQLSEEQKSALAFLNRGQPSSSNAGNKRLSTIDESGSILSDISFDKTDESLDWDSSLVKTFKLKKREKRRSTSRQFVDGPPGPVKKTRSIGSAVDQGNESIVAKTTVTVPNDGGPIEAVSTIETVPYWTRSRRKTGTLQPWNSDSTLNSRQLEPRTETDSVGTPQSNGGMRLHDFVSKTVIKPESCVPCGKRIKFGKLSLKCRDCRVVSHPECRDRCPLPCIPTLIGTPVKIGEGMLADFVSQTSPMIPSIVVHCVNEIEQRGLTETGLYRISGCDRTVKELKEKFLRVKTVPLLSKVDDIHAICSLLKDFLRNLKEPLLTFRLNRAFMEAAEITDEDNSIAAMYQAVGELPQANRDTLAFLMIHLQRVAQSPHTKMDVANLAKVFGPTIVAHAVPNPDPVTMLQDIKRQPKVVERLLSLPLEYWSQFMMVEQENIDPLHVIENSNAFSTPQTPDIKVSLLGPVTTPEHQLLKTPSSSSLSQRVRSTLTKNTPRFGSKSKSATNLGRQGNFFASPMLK

[5] = target: FAD-linked sulfhydryl oxidase ALR (Homo sapiens, UniProt P55789); test: inhibitors of human ALR sulfhydryl oxidase, dose response, biochemical, H2O2 detection, luminescence, cherry-pick (AID 493248)
[6] = target: T4, DNA repair protein RAD52 homolog (Homo sapiens, UniProt P43351); type: functional, biochemical
T4 sequence (P43351 whole entry): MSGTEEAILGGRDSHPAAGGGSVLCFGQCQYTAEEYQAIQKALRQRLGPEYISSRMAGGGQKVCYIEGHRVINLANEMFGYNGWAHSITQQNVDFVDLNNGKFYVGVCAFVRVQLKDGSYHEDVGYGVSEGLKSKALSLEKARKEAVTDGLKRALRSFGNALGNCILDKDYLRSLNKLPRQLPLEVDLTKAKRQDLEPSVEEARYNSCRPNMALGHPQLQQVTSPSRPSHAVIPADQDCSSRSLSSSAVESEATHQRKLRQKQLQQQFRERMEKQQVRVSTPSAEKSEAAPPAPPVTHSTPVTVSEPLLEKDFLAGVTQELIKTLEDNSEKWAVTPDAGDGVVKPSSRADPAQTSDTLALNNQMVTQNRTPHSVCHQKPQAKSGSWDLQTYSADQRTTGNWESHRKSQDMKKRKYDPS

[7] = target: T5, High affinity choline transporter 1 (Homo sapiens, UniProt Q9GZV3); test: CHT inhibitors, dose response, cell-based, 5-point CRC, membrane potential dye (AID 504840); type: functional
T5 sequence (Q9GZV3 whole entry): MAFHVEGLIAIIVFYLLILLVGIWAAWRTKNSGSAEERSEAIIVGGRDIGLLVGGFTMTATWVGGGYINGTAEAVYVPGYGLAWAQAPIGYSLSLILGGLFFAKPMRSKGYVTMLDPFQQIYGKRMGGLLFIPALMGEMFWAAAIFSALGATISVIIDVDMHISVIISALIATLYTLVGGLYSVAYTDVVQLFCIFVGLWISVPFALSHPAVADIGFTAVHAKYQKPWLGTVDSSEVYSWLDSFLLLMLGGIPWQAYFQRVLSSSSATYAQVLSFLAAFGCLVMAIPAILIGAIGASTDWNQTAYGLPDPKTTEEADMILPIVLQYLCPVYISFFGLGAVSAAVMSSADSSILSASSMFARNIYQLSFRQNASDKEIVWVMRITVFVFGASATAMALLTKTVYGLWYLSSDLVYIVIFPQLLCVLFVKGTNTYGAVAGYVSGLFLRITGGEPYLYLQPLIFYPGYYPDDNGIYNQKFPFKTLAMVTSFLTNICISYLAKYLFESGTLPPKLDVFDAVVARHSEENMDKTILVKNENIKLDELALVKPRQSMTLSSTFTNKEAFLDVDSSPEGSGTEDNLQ

[8] = target: T6, Calpain-2 catalytic subunit (Sus scrofa, UniProt P43367); test: pig calpain II inhibitor potency, dose response, biochemical, fluorogenic peptide substrate (AID 1420); type: functional
T6 sequence (P43367 whole entry): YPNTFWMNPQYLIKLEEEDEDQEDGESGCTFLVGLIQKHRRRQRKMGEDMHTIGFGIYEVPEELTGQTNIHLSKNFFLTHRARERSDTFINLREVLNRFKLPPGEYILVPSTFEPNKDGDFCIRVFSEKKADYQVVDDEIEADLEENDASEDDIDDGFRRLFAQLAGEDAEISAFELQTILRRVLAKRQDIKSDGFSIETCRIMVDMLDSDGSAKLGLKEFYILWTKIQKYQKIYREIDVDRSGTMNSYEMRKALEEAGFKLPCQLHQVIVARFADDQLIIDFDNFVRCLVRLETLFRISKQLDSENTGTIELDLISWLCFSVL

[9] = target: Induced myeloid leukemia cell differentiation protein Mcl-1 (Homo sapiens, UniProt Q07820); type: functional
Streptokinase A = target: T7, Streptokinase A (Streptococcus pyogenes serotype M1, UniProt P10520); test: S. pyogenes streptokinase expression inhibitors, potency, dose response, plasminogen activation absorbance, OD405 (AID 1914); type: functional, Streptococcus pyogenes M1 GAS;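 note: secreted streptokinase activity via plasminogen activation per viability signal from cell pellet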
T7 sequence (P10520 whole entry): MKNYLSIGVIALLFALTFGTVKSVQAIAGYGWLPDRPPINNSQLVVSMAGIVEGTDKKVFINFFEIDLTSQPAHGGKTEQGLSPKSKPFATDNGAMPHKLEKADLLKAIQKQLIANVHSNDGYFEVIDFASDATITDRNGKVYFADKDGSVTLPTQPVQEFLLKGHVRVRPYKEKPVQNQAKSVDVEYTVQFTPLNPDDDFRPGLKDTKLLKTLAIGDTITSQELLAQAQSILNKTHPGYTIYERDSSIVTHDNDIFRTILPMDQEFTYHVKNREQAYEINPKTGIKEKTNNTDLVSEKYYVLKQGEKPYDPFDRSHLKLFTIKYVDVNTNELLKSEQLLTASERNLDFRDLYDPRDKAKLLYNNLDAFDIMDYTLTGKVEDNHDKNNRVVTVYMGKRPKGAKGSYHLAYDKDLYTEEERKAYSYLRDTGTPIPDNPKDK

[10] = Luminescence Cell-Based Dose Retest to Confirm Inhibitors of Cancer Stem Cells. [Related pubchem assays (depositor defined):AID2717, AID2721]; type: functional; conditions: Homo sapiens
[11] = control 3'UTR Renilla luciferase suppression, dose response, counter-screen for Shn3 inhibitor project, cell-based, Clone20-Shn3RL, cherry-picked (AID 624133); type: functional
[12] = Shn3 3'UTR reporter inhibitors, dose response, cell-based, Clone20 osteoblasts, firefly luciferase, cherry-picked (AID 624132); type: functional;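 note: firefly luciferase luminescence from reporter carrying the Shn3 3'UTR in osteoblasts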
[13] = target: T8, Carboxy-terminal domain RNA polymerase II polypeptide A small phosphatase 1 (Homo sapiens, UniProt Q9GZU7); test: inhibitors of CTDSP1, concentration-response testing, biochemical assay, absorbance-based, actives from ultra-high-throughput screening (AID 540297); type: functional
T8 sequence (Q9GZU7 whole entry): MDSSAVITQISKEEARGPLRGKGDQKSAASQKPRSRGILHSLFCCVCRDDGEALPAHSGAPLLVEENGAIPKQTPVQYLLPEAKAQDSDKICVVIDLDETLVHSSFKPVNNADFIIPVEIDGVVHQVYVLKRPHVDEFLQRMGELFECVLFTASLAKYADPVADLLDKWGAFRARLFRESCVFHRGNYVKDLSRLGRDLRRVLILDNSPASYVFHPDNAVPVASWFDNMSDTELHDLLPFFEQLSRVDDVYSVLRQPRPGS

Sequence of FAD-linked sulfhydryl oxidase ALR (P55789 whole entry): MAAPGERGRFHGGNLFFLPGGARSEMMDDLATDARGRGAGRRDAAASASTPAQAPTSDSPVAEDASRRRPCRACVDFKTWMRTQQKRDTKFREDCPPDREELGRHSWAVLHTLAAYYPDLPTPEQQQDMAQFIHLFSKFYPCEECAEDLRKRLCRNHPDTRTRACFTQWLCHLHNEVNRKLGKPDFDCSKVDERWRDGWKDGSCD
Sequence of Large T antigen (P03070 whole entry, the tested form may be a part): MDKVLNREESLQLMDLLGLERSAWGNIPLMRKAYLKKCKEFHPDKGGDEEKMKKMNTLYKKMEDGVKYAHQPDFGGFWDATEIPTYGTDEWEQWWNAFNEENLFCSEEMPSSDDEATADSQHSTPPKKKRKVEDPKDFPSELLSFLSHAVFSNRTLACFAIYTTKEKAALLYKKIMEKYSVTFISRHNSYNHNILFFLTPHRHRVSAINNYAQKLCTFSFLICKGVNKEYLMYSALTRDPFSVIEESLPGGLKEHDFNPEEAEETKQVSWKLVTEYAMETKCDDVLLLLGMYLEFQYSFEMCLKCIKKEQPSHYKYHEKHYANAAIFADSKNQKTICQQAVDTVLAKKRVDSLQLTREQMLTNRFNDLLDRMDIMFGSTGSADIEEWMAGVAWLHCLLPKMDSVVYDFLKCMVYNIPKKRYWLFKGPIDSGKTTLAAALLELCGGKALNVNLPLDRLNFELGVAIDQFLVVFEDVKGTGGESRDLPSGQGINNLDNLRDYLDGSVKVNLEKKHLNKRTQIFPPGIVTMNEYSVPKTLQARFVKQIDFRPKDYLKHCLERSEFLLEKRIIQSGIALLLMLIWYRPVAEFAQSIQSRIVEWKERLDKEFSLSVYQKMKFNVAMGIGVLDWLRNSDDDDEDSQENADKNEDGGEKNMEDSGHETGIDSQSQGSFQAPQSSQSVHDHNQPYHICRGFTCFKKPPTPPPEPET
Sequence of Induced myeloid leukemia cell differentiation protein Mcl-1 (Q07820 whole entry): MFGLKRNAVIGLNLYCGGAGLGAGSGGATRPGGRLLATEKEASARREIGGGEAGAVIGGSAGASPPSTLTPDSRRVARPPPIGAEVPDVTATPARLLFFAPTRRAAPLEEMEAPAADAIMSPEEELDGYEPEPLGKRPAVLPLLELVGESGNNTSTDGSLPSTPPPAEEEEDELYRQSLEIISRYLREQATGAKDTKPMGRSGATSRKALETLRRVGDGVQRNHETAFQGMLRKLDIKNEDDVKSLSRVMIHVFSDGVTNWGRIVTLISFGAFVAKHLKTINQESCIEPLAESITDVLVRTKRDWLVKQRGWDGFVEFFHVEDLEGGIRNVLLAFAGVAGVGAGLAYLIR

## Nc1ccc2c(c1)-c1ccccc1S(=O)(=O)N2
[1]
  EC50: 12.2 µM (active)
Large T antigen
  IC50: 3.99 µM (active)
[2]
  EC50: > 300 µM (not active)

## O=C1C=CC(=O)N1c1ccc2ccccc2c1
[3]
  AC50: 0.832 µM (active)

## O=C(CCn1cnc2ccccc21)N/N=C/c1ccc(O)cc1
Large T antigen
  IC50: 14.2 µM (active)
[4]
  IC50: 51.6 µM (active)

## CC(NC(=O)C1CC1)C(c1cccs1)N1CCN(c2ccccc2)CC1 (centres undefined)
[5]
  AC50: 0.362 µM (active)

## N=c1sccn1CC(=O)Nc1ccc(SC(F)F)cc1
[5]
  AC50: 1.68 µM (active)

## CN1CCN(CCCCOc2ccccc2C=O)CC1
[6]
  AC50: 15.8 µM (active)

## COC(=O)Nc1ccc(S(=O)(=O)Nc2ccc(O)cc2)cc1
[5]
  AC50: 1.38 µM (active)

## CC1(C)CC(=O)C(/C=N/c2ccc(O)cc2)=C(O)C1
Large T antigen
  IC50: 5.53 µM (active)
[4]
  IC50: 17 µM (active)

## COc1ccc(C(=O)NNS(=O)(=O)c2ccc(OC)cc2)cc1
[5]
  AC50: 12.7 µM (active)

## CCOC(=O)c1sc(NC(=O)CCN2C(=O)c3cccc([N+](=O)[O-])c3C2=O)c(C(=O)OCC)c1C
[7]
  IC50: 5.98 µM (active)

## Cc1ccc(NC(=O)CN2C(=O)/C(=C3\SC(=S)N(C4CCS(=O)(=O)C4)C3=O)c3ccccc32)cc1 (centres undefined)
[8]
  IC50: 9.72 µM (not active)
[9]
  IC50: 24.1 µM (active)

## CC1CCCCC12NC(=O)N(CC(=O)Nc1ccc(S(=O)(=O)Nc3ncccn3)cc1)C2=O (centres undefined)
[5]
  AC50: 6.47 µM (active)

## S=C(NCC1CCCO1)Nc1cc(Cl)c(Cl)cc1Cl (centres undefined)
[7]
  IC50: 14.5 µM (active)

## COc1cc(-c2cnc3c(NC=O)cc(-c4ccc(N5CCN(C)CC5)cc4)cn23)cc(OC)c1OC
[6]
  AC50: 4.54 µM (active)

## Cc1ccc(-c2nnc(S)n2/N=C/c2c(C)nn(-c3ccccc3)c2O)cc1
[5]
  AC50: 13.5 µM (active)

## CC[C@@H](C)[C@H](NC(=O)Cc1c(C)c2cc3c(C)coc3c(C)c2oc1=O)C(=O)O
[5]
  AC50: 2.39 µM (active)

## Cc1ccc(-c2csc(NC(=O)c3cccc(C)c3)c2C(=O)O)cc1
[7]
  IC50: 11.8 µM (active)

## CCOC(=O)c1[n-]c2ccccc2c1[N+]#N
[3]
  AC50: 0.444 µM (active)
Streptokinase A
  EC50: > 150 µM (not active)

## COc1cc(C#Cc2c(-c3cncn3C)n(C)c3ccc(-c4ccc(OC)nc4)cc23)cc(OC)c1
[3]
  AC50: 5.5 µM (active)
[10]
  AC50: 4.95 µM (active)
[11]
  AC50: 21.2 µM (active)
[12]
  AC50: 20.5 µM (active)

## c1ccc(CCNc2c3c(nc4ncnn24)CCC3)cc1
[7]
  IC50: 10.1 µM (active)

## COc1ccc(C2=CC3=C(Br)C(=O)C(C)(OC(=O)c4ccc(Cl)nc4)C(=O)C3=CO2)cc1 (centres undefined)
[1]
  EC50: > 300 µM (not active)
Large T antigen
  IC50: 56.7 µM (active)
[2]
  EC50: > 300 µM (not active)

## CN(C)c1ccc(NC(=O)Cn2ncn3c(cc4ccccc43)c2=O)cc1
Large T antigen
  IC50: 29.6 µM (active)
[9]
  IC50: 3.14 µM (active)

## COc1cc(C(=O)NC2CC(C)(C)CC(C)(C)C2)ccc1OC1CCN(C(C)=O)CC1
[7]
  IC50: 13.8 µM (active)

## CSc1nc(Cl)cc(Nc2ccc(O)cc2)n1
Large T antigen
  IC50: 17.8 µM (active)

## O=C(CC(n1cncn1)C(Cl)(Cl)Cl)c1ccc([N+](=O)[O-])cc1 (centres undefined)
[3]
  AC50: 4.15 µM (active)

## O=C1NC(=O)N(c2ccccc2)C(=O)/C1=C\c1ccc2c3c(cccc13)CC2
[1]
  EC50: > 300 µM (not active)
Large T antigen
  IC50: 68.4 µM (active)
[9]
  IC50: 5.04 µM (active)
[2]
  EC50: > 300 µM (not active)

## C=C(C)CSc1nnc(CCCCCNC(=O)OC(C)(C)C)o1
[7]
  IC50: 6.92 µM (active)

## Cc1ccc(C(=O)O)cc1NC(=S)NC(=O)c1ccc(COc2ccccc2)cc1
[13]
  IC50: 6.25 µM (active)
[7]
  IC50: 15.5 µM (active)
